Data published in patent US9708282B1, “Anti-inflammatory and antiepileptic neuroprotective statin compounds” (NEURON BIOPHARMA, S.A., priority 2013, dated 2017).

Key:
β-secretase (BACE) [1] = target: T1, β-secretase (BACE) (Mus musculus, UniProt P56818); assay: β-secretase (BACE) enzymatic activity in the brain of mice after i.p. administration; assay type: in vivo; settings: 50 mg/kg i.p., 24 h after administration, FVB mice, brain homogenates
T1 construct: contacting a BACE-specific, fluorogenic substrate with a brain homogenate in which the enzyme is present; from tissue; host or cells: brain (without cerebellum) of FVB mice
Method: During the reaction, contacting a BACE-specific, fluorogenic substrate with a brain homogenate in which the enzyme is present allows quantifying the enzyme activity by means of measuring the fluorescence emitted.
Female FVB mice 4 months of age were treated i.p. with 50 mg/kg of the compounds or with equivalent volumes of the vehicle (n=6 mice/group). After 24 h, the animals were sacrificed and the brain was extracted and frozen at −20° C., first disposing of the cerebellum. After freezing the brains for 24 h, they were homogenized by making a 1/100 dilution in 0.1 M sodium acetate at pH 4. The samples were incubated for 10 minutes under cold conditions to favor lysis and to obtain the extract after centrifuging at 10,000 g for 10 minutes. The enzymatic reaction was then carried out. […] 50 μL of a 20 μM fluorogenic BACE substrate (Mca-[…]) were added to the samples and controls, the final concentration in the well being 10 μM and the total reaction volume being 100 μL. […] The results obtained in arbitrary units were normalized by the amount of protein that was determined by the bicinchoninic acid (BCA) method.

β-secretase (BACE) [2] = assay: β-secretase (BACE) enzymatic activity in the brain of zebra fish after i.p. administration; assay type: in vivo; settings: 100 mg/kg i.p., 24 h after administration, zebra fish 24 months of age
Method: The compounds object of study were prepared at different concentrations according to the weight of the animals in 0.5% methylcellulose in physiological saline, homogeneous suspensions thereof being obtained. Female zebra fish 24 months of age were treated i.p. with 100 mg/kg of the compounds or with equivalent volumes of the vehicle (n=8 fish/group). After 24 h, the animals were sacrificed and the brain was extracted and frozen at −20° C. After freezing the brains for 24 h, they were homogenized in 500 μL of 0.1 M sodium acetate at pH 4. The samples were incubated for 10 minutes under cold conditions to favor lysis and to obtain the extract after centrifuging at 10,000 g for 10 minutes. The enzymatic reaction was then carried out in the same way as in the case mice.

FVB/NRj mice = assay: Protection against epilepsy caused by kainate (Racine scale); settings: 3.125 mg/kg i.p. 24 h and 0.5 h before kainate 23 mg/kg
[3] = target: T2, 3-hydroxy-3-methylglutaryl coenzyme A reductase (HMGCR) (Homo sapiens, UniProt P04035); assay: Inhibition of HMGCR enzymatic activity in vitro (NADPH absorbance at 340 nm); assay type: biochemical; settings: hydroxy acid forms
T2 construct: representing oxidation of NADPH by the catalytic subunit of HMGCR in the presence of the substrate
T2 sequence (P04035 426-888 limits assumed): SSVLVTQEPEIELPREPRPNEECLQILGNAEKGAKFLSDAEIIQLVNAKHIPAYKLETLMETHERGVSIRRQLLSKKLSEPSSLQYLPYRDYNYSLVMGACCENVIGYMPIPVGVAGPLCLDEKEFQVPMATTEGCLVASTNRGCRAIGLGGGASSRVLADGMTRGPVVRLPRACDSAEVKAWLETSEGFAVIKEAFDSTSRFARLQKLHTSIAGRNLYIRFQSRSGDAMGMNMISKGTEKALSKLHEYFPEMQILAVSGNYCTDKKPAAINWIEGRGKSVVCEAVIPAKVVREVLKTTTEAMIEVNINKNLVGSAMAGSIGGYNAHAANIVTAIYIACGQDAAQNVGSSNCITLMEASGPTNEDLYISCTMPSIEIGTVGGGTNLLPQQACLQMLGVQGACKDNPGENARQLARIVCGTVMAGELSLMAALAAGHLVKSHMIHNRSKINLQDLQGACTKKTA
Excerpt: The degree of inhibition of the HMGCR enzyme in vitro by NST0076 and NST0078 in the hydroxy acid form thereof was studied.
During the reaction, HMGCR uses NADPH (Nicotinamide Adenine Dinucleotide Phosphate) as reducing agent and 3-hydroxy-3-methylglutaryl coenzyme A (HMG-CoA) as substrate. Mevalonic acid is obtained as a reaction product, and it serves as substrate for the subsequent reaction to continue with cholesterol synthesis. The enzymatic reaction object of study is schematized as follows: HMG-CoA+2.NADPH+2.H^+→Mevalonic acid+2.NADP^++CoASH
This in vitro assay is based on the spectrophotometric measurement of the decrease in absorbance at 340 nm, representing oxidation of NADPH by the catalytic subunit of HMGCR in the presence of the substrate. […] Briefly, the assay is performed in a 96-well plate with reaction buffer 50 mM KH2PO4, 1 M KCl, 2 mg/ml bovine serum albumin (BSA) and 5 mM DTT, at pH=7.3, and the concentrations of the reagents in the reaction mixture are 0.2 mM HMG-CoA, 3 μU/point HMGCR and 0.2 mM NADPH. The plate is read in a spectrophotometer at 340 nm and 37° C.

transgenic ApoB100 mice = assay: Hypocholesterolemic effect in endogenous (familial) hypercholesterolemia model; assay type: in vivo; settings: 50 mg/kg i.p., 12 h after treatment, male ApoB100 mice
Method: The mice were inoculated i.p. with 50 mg/kg of the compounds. Control mice were inoculated with equivalent volumes of the vehicle. Blood was drawn in fasting conditions before treating the animals and 12 h after treatments. Plasma, which was subsequently frozen, was obtained in both cases. The plasma total, LDL and HDL cholesterol concentration was quantified by enzymatic and spectrophotometric methods. After determining cholesterol levels and cholesterol fraction levels (baseline levels and 12 h after treatments), the change thereof with respect to the baseline level was calculated, and the results were depicted as a percentage with respect to the control group.

[4] = Concentrations in plasma of mice after i.p. administration (UPLC-MS); assay type: in vivo; settings: male FVB mice, lactone forms; for Plasma levels compared with simvastatin: 50 mg/kg i.p.; for AUC: mouse, plasma, ip, 50 mg/kg i.p., 1, 2, 4 and 6 h
Method: (§1) Male FVB mice 4 months of age were treated i.p. with 50 mg/kg of the compounds (n=4-8 mice/group/time). The animals were sacrificed 1, 2, 4 and 6 h after treatment by means of injecting Eutanax, the blood and brain being extracted after perfusion with PBS. The plasma obtained from the blood and the entire brain were frozen at −20° C. until analysis. The compounds were extracted from the tissues with ethyl acetate and resuspended in ethanol for subsequent UPLC-MS quantification. Fluvastatin was used as an internal standard.

reactive astroglia = assay: Protection against brain inflammation (astrogliosis, GFAP immunohistochemistry) induced by kainate; assay type: in vivo, mice; settings: 3.125 mg/kg i.p. 24 h and 0.5 h before kainate 23 mg/kg, then 1 dose/day for three days; surviving animals
Method: Based on the coronal sections of the brain obtained during the experiment described above, astrogliosis was analyzed by means of bright field immunohistochemistry for the glial fibrillary acidic protein (GFAP) in surviving animals.
The degree to which astrogliosis has spread (or score) was determined on a scale of intensity from 0 to 3, where zero indicates the absence of reactive astroglia and three indicates maximum reactive astroglia, for each of the groups.

[5] = test system: neurons of the hippocampus; settings: 3.125 mg/kg i.p. 24 h and 0.5 h before kainate 23 mg/kg, then 1 dose/day for three days
[6] = Concentrations in the brain of mice after i.p. administration (UPLC-MS); assay type: in vivo; settings: male FVB mice, lactone forms; for AUC in the brain: 50 mg/kg i.p., 1, 2, 4 and 6 h; for Brain AUC and Cmax compared with simvastatin: 50 mg/kg i.p.
Method: as §1

T1 sequence (P56818 46-501): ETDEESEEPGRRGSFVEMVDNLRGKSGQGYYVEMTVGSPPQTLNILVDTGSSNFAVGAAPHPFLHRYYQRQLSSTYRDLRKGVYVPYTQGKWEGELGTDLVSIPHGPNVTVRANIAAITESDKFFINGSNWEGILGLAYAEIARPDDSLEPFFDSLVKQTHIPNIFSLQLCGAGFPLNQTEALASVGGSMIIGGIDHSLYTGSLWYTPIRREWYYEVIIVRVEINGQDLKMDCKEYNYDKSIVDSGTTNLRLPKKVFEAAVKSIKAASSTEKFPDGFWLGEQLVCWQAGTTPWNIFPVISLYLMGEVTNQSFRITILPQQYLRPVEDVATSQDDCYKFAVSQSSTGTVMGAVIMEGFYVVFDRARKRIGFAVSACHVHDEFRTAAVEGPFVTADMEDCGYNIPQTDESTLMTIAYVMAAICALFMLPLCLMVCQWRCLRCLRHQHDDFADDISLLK

SMILES | BACE enzymatic activity in the brain of mice (β-secretase (BACE) [1]) | BACE enzymatic activity in the brain of zebra fish (β-secretase (BACE) [2]) | Levels of epilepsy (AUC of Racine scale over 120 min, with respect to Vehicle+KA group) (FVB/NRj mice) | HMGCR inhibition, times less than simvastatin [3] | Hypocholesterolemic effect (change in plasma total, LDL and HDL cholesterol) (transgenic ApoB100 mice) | Plasma levels compared with simvastatin [4] | AUC [4] | Degree of astrogliosis induced by kainate (score 0 to 3) (reactive astroglia) | Percentage of animals without damage (hippocampus) [5] | AUC in the brain [6] | Brain AUC and Cmax compared with simvastatin [6] | HMGCR inhibition (in words) [3] | IC50 ([3]; 20 min, 37° C., read-out: IC50 (concentration at which 50% of the HMGCR enzymatic activity is inhibited))
CCC(CC)C(=O)O[C@H]1C[C@@H](C)C=C2C=C[C@H](C)[C@H](CC[C@@H]3C[C@@H](O)C(CC)C(=O)O3)[C@H]21 (stereo partly drawn) [NST0078, (1S,3R,7S,8S,8aR)-8-(2-((2R,4R)-5-ethyl-4-hydroxy-6-oxo-tetrahydro-2H-pyran-2-yl)ethyl)-3,7-dimethyl-1,2,3,7,8,8a-hexahydronaphthalen-1-yl 2-ethylbutanoate] | capable of reducing BACE enzymatic activity in a statistically significant manner | capable of reducing BACE enzymatic activity with respect to the control in a statistically significant manner | greater reduction of the levels of epilepsy compared to simvastatin | about 1,900 times | did not show any hypocholesterolemic effect | plasma levels considerably greater than simvastatin | 17000 ng·h/mL | protected against astrogliosis induced by kainate in all the studied regions | 60% | 17 µg·h/g | AUC and Cmax values surprisingly greater than those of simvastatin |  | 
CCC(C)(C)C(=O)O[C@H]1C[C@@H](C)C=C2C=C[C@H](C)[C@H](CC[C@@H]3C[C@@H](O)CC(=O)O3)[C@H]21 [simvastatin, reference compound] |  |  |  |  |  |  |  |  | 25% |  |  |  | 
C[C@H]1C=C2C=C[C@H](C)[C@H](CC[C@@H]3C[C@@H](O)CC(=O)O3)[C@H]2[C@@H](O)C1 [monacolin J, reference compound] |  |  |  |  |  |  |  |  |  |  |  | HMGCR inhibitory capacity much less than that of simvastatin | 
CCC(CC)C(=O)O[C@H]1C[C@@H](C)C=C2C=C[C@H](C)[C@H](CC[C@@H]3C[C@@H](O)C(C)C(=O)O3)[C@H]21 (stereo partly drawn) [NST0076, (1S,3R,7S,8S,8aR)-8-(2-((2R,4R)-4-hydroxy-5-methyl-6-oxo-tetrahydro-2H-pyran-2-yl)ethyl)-3,7-dimethyl-1,2,3,7,8,8a-hexahydro-naphthalen-1-yl 2-ethylbutanoate] | capable of reducing BACE enzymatic activity in a statistically significant manner |  | greater reduction of the levels of epilepsy compared to simvastatin | about 28 times | did not show any hypocholesterolemic effect | plasma levels considerably greater than simvastatin | 12000 ng·h/mL | protected against astrogliosis induced by kainate in all the studied regions | 50% | 37 µg·h/g | AUC and Cmax values surprisingly greater than those of simvastatin | do not significantly inhibit the HMGCR enzyme | 603 ± 177 nM
